Columns and labels:
[1] = In vitro dissolution of fast-dissolve tablets in SGF (simulated gastric fluid); format: physicochemical; conditions: 50 rpm, FIG. 5; for time to realize >90% dissolved: about 400 mg tablet, target 100 mg levodopa, lactose filler, 200 mL SGF pH 2.0, 37 degrees C., average of N=2, normalized by final concentration
Method: A dissolution study for a levodopa fast-dissolve tablet feasibility study was completed. All tablets were about 400 mg total weight and contained a target of 100 mg levodopa in four forms: levodopa free base, levodopa hydrochloride salt (from Example 1), levodopa free base jet milled (5-10 micrometers), and levodopa free base jet milled granulated with HPC-L solution. The filler for the tablet was Pharmatose DCL 14 (lactose). The dissolution was carried out in 200 mL of SGF (simulated gastric fluid) at 37 degrees C. using an overhead mixer at a speed of 50 rpm. […] In the above described dissolution study, the SGF was prepared using the following preparation: Dissolved 4 grams sodium chloride and 2 grams Triton X-100 in 2000 mL HPLC grade water. Added 1 N hydrochloric acid to the solution until the pH reached 2.0.

[2] = Aqueous solubility; format: physicochemical; conditions: water, 25 °C; at about 25 degrees C.
Method: To a slurry containing levodopa (15.1 g, 0.0766 mol) in acetonitrile (750 ml) was added concentrated hydrochloric acid (7.0 mL, 0.0781 mol) dropwise with stirring. Addition of hydrochloric acid to the slurry caused it to form a clear solution followed by precipitation of levodopa hydrochloride. The solid material was collected by filtration and dried under a flow of nitrogen overnight. The solid was characterized using PXRD (Bruker), DSC, TGA and Raman spectroscopy.

[3] = temperature not given; cited from earlier work

| Structure (SMILES) | time to realize >90% dissolved [1] | solubility [2] | time to >90% dissolved, free base versus hydrochloride salt ([1]; same tablets, 200 mL SGF, 37 degrees C.) | aqueous solubility of the free base [3] |
| --- | --- | --- | --- | --- |
| Cl.NC(Cc1ccc(O)c(O)c1)C(=O)O (single isomer, unassigned; (-)) [levodopa hydrochloride salt, (−)-2-amino-3-(3,4-dihydroxyphenyl)propanoic acid hydrochloride] | ~10 min | 11 to 16 mg/mL |  |  |
| N[C@@H](Cc1ccc(O)c(O)c1)C(=O)O [levodopa free base, (−)-2-amino-3-(3,4-dihydroxyphenyl)propanoic acid] | about 20 minutes |  | about twice as long | about 1.65 mg/mL |
